# From patent US10137113B2, “5-HT4 receptor agonist as a prokinetic agent” (RaQualia Pharma Inc., priority 2011, dated 2018)
# Columns and labels:
# [1] = tested on: gastric antrum of conscious dogs; assay: Gastric antral motility by implanted force transducers, fasted conscious dogs, oral dosing; format: in vivo, dog
# Experimental: (§1) GI motility was assessed by processing the signals from the force transducers implanted in dogs prepared for investigation of motility. Briefly, dogs were anesthetized with isoflurane and the abdominal cavity was opened under aseptic conditions. Extraluminal force transducers (F-12IS, Star Medical, Tokyo) were sutured onto the seromuscular layer of the gastric antrum, the gastric body, the duodenum, and the proximal colon. After the surgery, protective jackets were placed on the dogs and they were housed in individual cages. The dogs were fasted overnight before the experiment and placed in the shield room. The motility was measured with a telemetry system (GTS-800, Star Medical, Tokyo) and data acquired into a personal computer with the acquisition software (Eight Star, Star Medical, Tokyo). After confirmation of interdigestive migrating complex (IMC), the test drugs were administered orally. Gut motility was then recorded more than 5 hours (hrs). To measure the gastric motility quantitatively, motor indexes that represent areas of contractions were calculated. The signals from the force transducer were acquired on a personal computer and analyzed by processing software (Analyze II; StarMedical). In the fasted state, the areas surrounded by the contraction curve and the baseline were determined every 2 hrs after administration. For standardization, the calculated areas were divided by the IMC peak height before administration, and they were used as the motor index (MI). Results are presented as the mean+/− standard error of the mean (S.E.M., N=4-5). Statistical analysis was performed with Dunnett's multiple comparison test using GraphPad Prism (GraphPad Software, Inc.).
# [2] = tested on: proximal colon of conscious dogs; assay: Proximal colon motility by implanted force transducers, fasted conscious dogs, oral dosing; format: in vivo; conditions: dog
# Experimental: as §1
# [3] = tested on: gastric antrum and duodenum of conscious dogs; assay: Gastro-duodenum contractions by implanted force transducers, fasted conscious dogs, oral dosing; format: in vivo; conditions: dog, 0.3 mg/kg (dose that enhances proximal colon motility), FIG. 5
# Experimental: GI motility was assessed by processing the signals from the force transducers implanted in dogs prepared for investigation of motility. Briefly, dogs were anesthetized with isoflurane and the abdominal cavity was opened under aseptic conditions. Extraluminal force transducers (F-12IS, Star Medical, Tokyo) were sutured onto the seromuscular layer of the gastric antrum, the gastric body, the duodenum, and the proximal colon. After the surgery, protective jackets were placed on the dogs and they were housed in individual cages. The dogs were fasted overnight before the experiment and placed in the shield room. The motility was measured with a telemetry system (GTS-800, Star Medical, Tokyo) and data acquired into a personal computer with the acquisition software (Eight Star, Star Medical, Tokyo). […] Gut motility was then recorded more than 5 hours (hrs). To measure the gastric motility quantitatively, motor indexes that represent areas of contractions were calculated. The signals from the force transducer were acquired on a personal computer and analyzed by processing software (Analyze II; StarMedical). In the fasted state, the areas surrounded by the contraction curve and the baseline were determined every 2 hrs after administration. For standardization, the calculated areas were divided by the IMC peak height before administration, and they were used as the motor index (MI). […]
smiles,measurement,setting,value
"COc1cc(N)c(Cl)cc1C(=O)NC1CCN(CCCOc2ccc(F)cc2)CC1OC (stereo not drawn) [Cisapride, cisapride]",gastric antral motility,"[1]; dog, fasted, oral, 1 mg/kg, FIG. 2",significantly increased gastric antral motility
"O=C(O)C1(CN2CCC(COc3noc4cccc(OCC(F)(F)F)c34)CC2)CCOCC1 [Compound A, 4-{[4-({[4-(2,2,2-trifluoroethoxy)-1,2-benzisoxazol-3-yl]-oxy}methyl)piperidin-1-yl]methyl}tetrahydro-2H-pyran-4-carboxylic acid]","effects on GI motility / potency relative to other 5-HT4 agonists (cisapride, mosapride, tegaserod)",[1]; dog GI motility models,more than 100 times
same,potency relative to cisapride in enhancing gastric antral motility,"[1]; dog, fasted, oral",approximately 1000 times
same,"minimum effective dose, change in motor index (MI) of gastric antral motility","[1]; dog, fasted, oral, 0 to 2 hour period after administration, statistical significance (Dunnett)",1 micro g/kg
same,gastric antral motor activity,"[1]; dog, fasted, oral, 0.1-10 micro g/kg, FIG. 1",increased the gastric antral motor activity in dose dependent manner
same,amplitude and frequency of contractions in the proximal colon,"[2]; 1 micro g/kg, FIG. 4",enhanced
same,occurrence of giant migrating contractions,[2]; after treatment,facilitated the occurrence of giant migrating contractions
CCOc1cc(N)c(Cl)cc1C(=O)NCC1CN(Cc2ccc(F)cc2)CCO1 (stereo not drawn) [mosapride],gastric antral motility,"[1]; dog, fasted, oral, 3 mg/kg, FIG. 3",tended to increase the antral motility
COCCCN1CCC(NC(=O)c2cc(Cl)c(N)c3c2OCC3)CC1 [prucalopride],gastric antral motility,"[1]; dog, fasted, oral, 0.1 mg/kg, FIG. 5",stimulated gastric antral motility
same,contractions of proximal colon,"[2]; 0.1 mg/kg, FIG. 5",did not affect contractions of proximal colon
same,colonic motor activity,"[2]; 0.3 mg/kg, FIG. 5",enhanced the colonic motor activity
same,gastro-duodenum contractions,[3],induced excessive gastro-duodenum contractions
